In patent US10849847B2, “Compositions and methods for treating rosacea and acne” (Foamix Pharmaceuticals Ltd., priority 2016, dated 2020):
Where two headings read alike, the source gives them in different places.

What was measured:
[1] = for Compatibility with Minocycline HCl: tested after the storage for up to 3 weeks; for Compatibility with Minocycline HCl (observations): on dissolution / storage; for Effect of anti-oxidant on oxidation of Minocycline HCl: waterless medium of propylene glycol and PEG 200
Procedure: The ratio between MCH and the tested excipient is detailed below. Visual inspection was the major criterion for indication of compatibility. The color of intact MCH suspension is pale yellow; and any change of color (e.g., to dark orange, red, green, brown and black) indicates oxidation or degradation.
Other than hydrogenated castor oil, beeswax, paraffin and hard fat, the aforesaid items listed are oily emollients.
Additives were tested for compatibility with MCH. […] In parallel, antioxidants were added to the MCH suspensions comprising water.

[2] = Doxycycline Hyclate Compatibility Test; assay type: physicochemical; conditions: for Effect of anti-oxidant on oxidation of Doxycycline Hyclate: waterless medium of propylene glycol and PEG 200
Procedure: (§1) A similar compatibility study was conducted for Doxycycline Hyclate and Doxycycline Monohydrate.
(§2) Different compositions of hydrophilic and hydrophobic solvents containing Doxycycline Hyclate (Set I and Set II) and Doxycycline Monohydrate (Set III) were prepared by weighing the antibiotic in a glass vial and shaking overnight with each solvent investigated.
Group II included Doxycycline Hyclate mixed with various vehicles with addition of antioxidants like alpha tocopherol, butylated hydroxytoluene (BHT), and ascorbic acid.

[3] = Doxycycline Monohydrate Compatibility Test; assay type: physicochemical
Procedure: as §1, §2
A similar compatibility test was performed on another form of Doxycycline—Doxycycline Monohydrate.

papulopustular rosacea = conditions: cited from earlier work; for IGA = Clear/Almost Clear / Inflammatory Lesions: Mean Absolute Reduction / ≥2 IGA Grade Reduction: Week 16
[4] = Phase I PK study in adults with acne: topical minocycline foam 4% for 21 days vs single oral dose of minocycline (FX2014-03); assay type: in vivo, human; conditions: Period 1, single oral dose ~1 mg/kg minocycline, Day 1-5; for AUC(0-inf) / AUC / Cmax / half-life / Tmax: both sexes, human, plasma, po, 1 mg/kg
Procedure: Each application was approximately 4 g (a maximal-use dose). […] On the day of initial dosing (Day 1), subjects checked into the clinic where they were confined until 1 hour after study drug was administered. Predose clinical assessments were performed and a 1 mL blood sample for PK analysis was obtained before study drug was administered.
SUBJECTS: Adults were eligible for this study if they were 18 to 35 years of age; children were eligible for the pediatric study if they were 9 to 16 years and 11 months of age and in good health, as judged on the basis of their medical history and the screening procedures. They were required to have moderate-to-severe facial acne vulgaris as well as acne affecting at least two additional regions of the body (neck, upper chest, upper back, or arms).
On days 6, 9, 10, 11, and 16, blood samples were obtained at approximately 30 minutes before the scheduled application. […] After the final application, subjects were asked to return for additional blood sampling on days 23, 24, and 25.
BIOANALYTICAL METHODS: Blood samples were collected and centrifuged, and the separated plasma was stored at approximately −70° C.
Actual sample collection times were used for the purpose of calculating pharmacokinetic parameters. […] Geometric mean was calculated for Cmax, AUC0-tldc, AUC0-inf, and AUC0-tau, and the harmonic mean was calculated for t1/2. Analysis of multiple-dose accumulation, determination of steady state, and other pertinent comparisons of pharmacokinetic parameters across or between doses were performed using the appropriate statistical methods. […] The CIs were expressed as a percentage relative to the LSM of the reference treatment.

[5] = Doxycycline Monohydrate Compatibility Test; assay type: physicochemical; conditions: waterless medium of propylene glycol and PEG 200
[6] = foam adjuvants, MCH:excipient 1:50
[7] = hydrophilic solvents, MCH:excipient 1:250, 25° C. and 40° C., maximum sixty days
[8] = tested after the storage for up to 3 weeks
[9] = surfactants solubilized in mineral oil, MCH:excipient 1:50
[10] = mixtures stored at 25° C., 40° C. and 50° C. for two weeks
[11] = oily emollients, MCH:excipient 1:250, 25° C. and 40° C., maximum sixty days

## CCCCCCCCCCCCCCCCCCCCCCO [Behenyl alcohol]
[1]; [6]
  Compatibility with MCH: compatible

## OCCCCO [Butylene Glycol]
[1]; [7]
  Compatibility with MCH: incompatible
[1]
  Compatibility with Minocycline HCl: No
[2]; [8]
  Compatibility with Doxycycline Hyclate: No
[3]; [8]
  Compatibility with Doxycycline Monohydrate: No

## CCCCCCCCCCCCCCCCO [Cetyl alcohol]
[1]; [6]
  Compatibility with MCH: compatible

## C[Si]1(C)O[Si](C)(C)O[Si](C)(C)O[Si](C)(C)O[Si](C)(C)O1 [Cyclomethicone 5 NF]
[1]
  Compatibility with Minocycline HCl: Yes
[2]; [8]
  Compatibility with Doxycycline Hyclate: Yes
[3]; [8]
  Compatibility with Doxycycline Monohydrate: Yes

## CCOCCOCCO [Diethylene glycol monoethyl ether]
[1]; [7]
  Compatibility with MCH: incompatible

## CO[C@H]1CO[C@H]2[C@@H]1OC[C@H]2OC [Dimethyl Isosorbide]
[1]; [7]
  Compatibility with MCH: incompatible
[1]
  Compatibility with Minocycline HCl: No
[2]; [8]
  Compatibility with Doxycycline Hyclate: No
[3]; [8]
  Compatibility with Doxycycline Monohydrate: No

## C[S+](C)[O-] [Dimethyl Sulfoxide]
[1]; [7]
  Compatibility with MCH: incompatible

## OCC(O)CO [Glycerin]
[1]; [7]
  Compatibility with MCH: incompatible
[1]
  Compatibility with Minocycline HCl (observations): intensive oxidation
  Compatibility with Minocycline HCl: No
[2]; [8]
  Compatibility with Doxycycline Hyclate: No
[3]; [8]
  Compatibility with Doxycycline Monohydrate: No

## CCCCCCCCCCCCCCCCCC(=O)OCC(O)CO (stereo not drawn) [Glyceryl monostearate]
[1]; [9]
  Compatibility with MCH: incompatible

## CC(O)CC(C)(C)O (stereo not drawn) [Hexylene Glycol]
[1]; [7]
  Compatibility with MCH: incompatible
[1]
  Compatibility with Minocycline HCl: No
[3]; [10]
  Compatibility with Doxycycline Monohydrate: oxidized
[3]; [8]
  Compatibility with Doxycycline Monohydrate: No

## CCCCCCCCCCCCCC(=O)OC(C)C [Isopropyl myristate]
[1]; [11]
  Compatibility with MCH: compatible

## CC(C)CCCCCCCCCCCCCCC(=O)O [Isostearic acid]
[1]; [6]
  Compatibility with MCH: not compatible
[1]
  Compatibility with Minocycline HCl: No
[2]; [8]
  Compatibility with Doxycycline Hyclate: Yes

## CC(C)CCCCCCCCCCCCCCCO [Isostearyl alcohol]
[1]; [6]
  Compatibility with MCH: compatible

## CC1CCC(C(C)C)C(O)C1 (stereo not drawn) [Menthol]
[1]; additives, MCH:excipient 1:50
  Compatibility with MCH: compatible

## CCCCCCCCCCCCCCO [Myristyl alcohol]
[1]; [6]
  Compatibility with MCH: compatible
[1]
  Compatibility with Minocycline HCl: Yes
[2]; [8]
  Compatibility with Doxycycline Hyclate: Yes

## CCCCCCCCCCC(CO)CCCCCCCC (stereo not drawn) [Octyl dodecanol]
[1]; [11]
  Compatibility with MCH: compatible
[1]
  Compatibility with Minocycline HCl (observations): full compatibility
  Compatibility with Minocycline HCl: Yes
[2]; [10]
  Compatibility with Doxycycline Hyclate: incompatibility
[2]; [8]
  Compatibility with Doxycycline Hyclate: No
[3]; [10]
  Compatibility with Doxycycline Monohydrate: incompatibility
[3]; [8]
  Compatibility with Doxycycline Monohydrate: No

## CCCCCCCC/C=C\CCCCCCCC(=O)O [Oleic acid]
[1]; [6]
  Compatibility with MCH: compatible

## CCCCCCCC/C=C\CCCCCCCCO [Oleyl alcohol]
[1]; [6]
  Compatibility with MCH: compatible
[1]
  Compatibility with Minocycline HCl: Yes
[2]; [8]
  Compatibility with Doxycycline Hyclate: Yes

## C[C@H]1c2cccc(O)c2C(=O)C2=C(O)[C@]3(O)C(=O)C(C(N)=O)=C(O)[C@@H](N(C)C)[C@@H]3[C@@H](O)[C@@H]21 [Oracea]
Papulopustular rosacea; Study 1, Active
  Baseline IGA Moderate: 52.8%
  Baseline IGA Severe: 40.9%
  Inflammatory Lesions: Baseline No. of lesions: 19.5
  IGA = Clear/Almost Clear: 30.7%
  Inflammatory Lesions: Mean Absolute Reduction: −11.8
  ≥2 IGA Grade Reduction: 45.7%
Papulopustular rosacea; Study 2, Active
  Baseline IGA Moderate: 54.2%
  Baseline IGA Severe: 33.8%
  Inflammatory Lesions: Baseline No. of lesions: 20.5
  IGA = Clear/Almost Clear: 14.8%
  Inflammatory Lesions: Mean Absolute Reduction: −9.5
  ≥2 IGA Grade Reduction: 22.5%

## CCCCCCCCCCCCCCCC(=O)O [Palmitic acid]
[1]; [6]
  Compatibility with MCH: compatible

## CC(O)CO (stereo not drawn) [Propylene glycol]
[1]; [7]
  Compatibility with MCH: incompatible
[1]
  Compatibility with Minocycline HCl: No
[2]; [8]
  Compatibility with Doxycycline Hyclate: No
[3]; [8]
  Compatibility with Doxycycline Monohydrate: No

## CN(C)c1ccc(O)c2c1C[C@H]1C[C@H]3[C@H](N(C)C)C(O)=C(C(N)=O)C(=O)[C@@]3(O)C(O)=C1C2=O [Solodyn]
[4]
  kel, Mean: 0.044 h⁻¹
  kel, Median: 0.04 h⁻¹
[4]; read-out: AUC0-inf, Geometric Mean
  AUC(0-inf): 15100 ng·h/mL
[4]; read-out: AUC0-inf, Mean
  AUC(0-inf): 15500 ng·h/mL
[4]; read-out: AUC0-inf, Median
  AUC(0-inf): 15600 ng·h/mL
[4]; read-out: AUC0-tldc, Geometric Mean
  AUC: 14800 ng·h/mL
[4]; read-out: AUC0-tldc, Mean
  AUC: 15200 ng·h/mL
[4]; read-out: AUC0-tldc, Median
  AUC: 15400 ng·h/mL
[4]; read-out: Cmax, Geometric Mean
  Cmax: 850 ng/mL
[4]; read-out: Cmax, Mean
  Cmax: 873 ng/mL
[4]; read-out: Cmax, Median
  Cmax: 801 ng/mL
[4]; read-out: T1/2, Harmonic Mean (converted)
  half-life: 15.8 h
[4]; read-out: T1/2, Mean (converted)
  half-life: 16 h
[4]; read-out: T1/2, Median (converted)
  half-life: 15.9 h
[4]; read-out: Tmax, Mean
  Tmax: 2.7 h
[4]; read-out: Tmax, Median
  Tmax: 3 h

## CCCCCCCCCCCCCCCCCC(=O)O [Stearic acid]
[1]; [6]
  Compatibility with MCH: compatible

## CCCCCCCCCCCCCCCCCCO [Stearyl alcohol]
[1]; [6]
  Compatibility with MCH: compatible
[1]
  Compatibility with Minocycline HCl: Yes
[2]; [8]
  Compatibility with Doxycycline Hyclate: Yes

## Cc1c(C)c2c(c(C)c1O)CC[C@@](C)(CCC[C@H](C)CCC[C@H](C)CCCC(C)C)O2 [alpha-tocopherol]
[1]
  Effect of antioxidant on MCH degradation: did not prevent MCH degradation
  Effect of anti-oxidant on oxidation of Minocycline HCl: did not prevent the oxidation
[2]
  Effect of anti-oxidant on oxidation of Doxycycline Hyclate: did not prevent the oxidation
[5]
  Effect of anti-oxidant on oxidation of Doxycycline Monohydrate: did not prevent the oxidation

## O=C1O[C@H]([C@@H](O)CO)C(O)=C1O [ascorbic acid]
[1]
  Effect of anti-oxidant on oxidation of Minocycline HCl: did not prevent the oxidation
[2]
  Effect of anti-oxidant on oxidation of Doxycycline Hyclate: did not prevent the oxidation
[5]
  Effect of anti-oxidant on oxidation of Doxycycline Monohydrate: did not prevent the oxidation

## CC(C)OC(=O)CCCCC(=O)OC(C)C [diisopropyl adipate]
[1]; [11]
  Compatibility with MCH: compatible
[1]
  Compatibility with Minocycline HCl: Yes
[2]; [8]
  Compatibility with Doxycycline Hyclate: Yes
[3]; [8]
  Compatibility with Doxycycline Monohydrate: No

## CCCOC(=O)c1cc(O)c(O)c(O)c1 [propyl gallate]
[1]
  Effect of antioxidant on MCH degradation: did not prevent MCH degradation

## BHA/BHT
[1]
  Effect of antioxidant on MCH degradation: did not prevent MCH degradation

## Cyclomethicone
[1]; [11]
  Compatibility with MCH: compatible

## SPAN 40
[1]; [9]
  Compatibility with MCH: incompatible

## SPAN 60
[1]; [9]
  Compatibility with MCH: incompatible

## SPAN 80
[1]; [9]
  Compatibility with MCH: incompatible

## Sorbitan Monolaurate
[1]
  Compatibility with Minocycline HCl: No
[2]; [8]
  Compatibility with Doxycycline Hyclate: No
[3]; [8]
  Compatibility with Doxycycline Monohydrate: No

## Sorbitan Monostearate
[1]
  Compatibility with Minocycline HCl: Yes
[2]; [8]
  Compatibility with Doxycycline Hyclate: Yes

## Sorbitan sesquistearate
[1]; [9]
  Compatibility with MCH: incompatible
